In BindingDB's records for doi:10.7270/Q2JW8CBM (Burnham Center For Chemical Genomics, 2010):

Biological target: Nucleotide-binding oligomerization domain-containing protein 2 (Homo sapiens, UniProt Q9HC29)
Assay: inhibition of NOD2 signaling – set 2, SAR follow-up (AID 2475)

Sequence of Nucleotide-binding oligomerization domain-containing protein 2 (Q9HC29 whole entry, the tested form may be a part): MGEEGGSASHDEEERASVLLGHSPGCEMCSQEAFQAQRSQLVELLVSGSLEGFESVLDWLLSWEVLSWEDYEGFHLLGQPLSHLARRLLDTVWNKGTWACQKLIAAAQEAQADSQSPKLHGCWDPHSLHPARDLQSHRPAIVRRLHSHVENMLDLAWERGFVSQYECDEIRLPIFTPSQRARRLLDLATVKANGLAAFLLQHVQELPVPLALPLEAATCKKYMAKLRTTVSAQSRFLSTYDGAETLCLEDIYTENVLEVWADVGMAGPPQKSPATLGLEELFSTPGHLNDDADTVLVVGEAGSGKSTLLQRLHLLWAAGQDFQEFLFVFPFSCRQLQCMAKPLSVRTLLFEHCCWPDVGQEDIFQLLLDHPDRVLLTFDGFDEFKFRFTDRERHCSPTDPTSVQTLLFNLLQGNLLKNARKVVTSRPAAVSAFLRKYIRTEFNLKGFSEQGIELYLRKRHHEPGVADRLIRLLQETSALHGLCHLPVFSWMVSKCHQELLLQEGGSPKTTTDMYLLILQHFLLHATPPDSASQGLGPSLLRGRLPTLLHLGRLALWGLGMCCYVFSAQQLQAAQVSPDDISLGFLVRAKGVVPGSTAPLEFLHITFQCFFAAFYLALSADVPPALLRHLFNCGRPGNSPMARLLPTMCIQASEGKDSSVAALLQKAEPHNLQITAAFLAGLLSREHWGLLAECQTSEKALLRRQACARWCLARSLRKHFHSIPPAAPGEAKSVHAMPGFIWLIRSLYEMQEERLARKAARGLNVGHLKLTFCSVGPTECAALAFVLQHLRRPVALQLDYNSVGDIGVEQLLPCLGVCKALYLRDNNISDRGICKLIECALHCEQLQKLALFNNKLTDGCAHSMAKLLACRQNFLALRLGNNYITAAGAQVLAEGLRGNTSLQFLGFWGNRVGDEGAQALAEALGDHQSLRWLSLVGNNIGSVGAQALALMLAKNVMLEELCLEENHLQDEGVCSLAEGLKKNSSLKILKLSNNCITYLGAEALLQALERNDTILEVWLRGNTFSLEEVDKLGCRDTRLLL

SMILES	IC50
Cc1ccc(C)c(SCC(=O)OCC(=O)C(C#N)c2nc3ccccc3[nH]2)c1 (configuration not stated) [MLS000392255]	4.21 µM
Cc1cc(SCC(=O)OCC(=O)C(C#N)c2nc3ccccc3[nH]2)c(C)cc1Br (configuration not stated)	5.19 µM
